GI50 and TGI data for 18 molecules are collected here from PubChem BioAssay (NCI).

SMILES strings stand for the structures.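 How tested: cells in 96-well plates exposed to compound for 48 hours at five concentrations. GI50 is the concentration that inhibits growth by half. TGI marks complete inhibition of growth.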

Holding throughout (test): NCI tumour cell line growth inhibition, 48 h
Assay [1] relates to MCF7 breast.
Assay [2] concerns MDA-MB-231 breast.
The subject of assay [3] is NCI/ADR-RES ovarian.
Assay [4] has as its system HS 578T breast.

Consider `C[C@@H]1C=C(CCCCCCCCCCC[C@H](O)[C@@H]2CCC(=O)O2)C(=O)O1`, for which the results for the GI50 in assay [1], in assay [2] and in assay [3] were 39.2 µM, 19.4 µM and 12.1 µM, respectively. Moreover, the TGI in assay [1] was more than 100 µM; in assay [2] it was 88.7 µM; in assay [3], 34 µM.
Consider `COc1cc(Nc2nc3cc(N)cc(N)c3nc2-c2ccccc2)cc(OC)c1`, for which the GI50 is 7.86 µM in assay [1], 6.5 µM in assay [2], 12.9 µM in assay [3] and 10.9 µM in assay [4]. In addition, the TGI in assay [1] is 27.1 µM; in assay [2], 34.3 µM; in assay [3], 73.4 µM; in assay [4], 63.8 µM.
Consider `O=C(O)c1cc2ccccc2c(O)c1O`, for which the TGI was 28.4 µM in assay [1], 32.7 µM in assay [2], 41.5 µM in assay [3] and 45.4 µM in assay [4].
As to `C(=N\Nc1ccccn1)/c1ccccn1`, the GI50 is 0.401 µM in assay [1], 0.501 µM in assay [2], 0.359 µM in assay [3] and 1.41 µM in assay [4]. For the same molecule, the TGI was more than 100 µM in assay [1], more than 100 µM in assay [2], more than 39.7 µM in assay [3] and more than 100 µM in assay [4].
Turning to `CCN(Cc1cccc(OC)c1)c1ccc(CO)c(Cl)c1`, the GI50 in assay [1] was 0.196 µM; in assay [2], 14.9 µM; in assay [3], 13.7 µM; in assay [4], 18.3 µM. The TGI in assay [1] was found to be 14.5 µM; in assay [2] it was 44 µM; in assay [3] it was 43.4 µM; in assay [4], 61.9 µM.
Consider `Cc1ccc(C(CN(C)C)C(=O)c2ccccc2)cc1` (centres undefined), for which the GI50 in assay [2] is 2.64 µM; in assay [3] it was 2.89 µM; in assay [4], 4.7 µM. The TGI in assay [2] turned out to be 7.07 µM; in assay [3], 12.6 µM; in assay [4], 33.6 µM.
As to `CCCCn1c2cc(OCc3cn(-c4ccc(Cl)cc4)nn3)ccc2c2ccnc(C)c21`, the GI50 in assay [1] is 7.14 µM; in assay [2], 7.26 µM; in assay [3] it was 6.98 µM; in assay [4], 7.09 µM. Also, the TGI was more than 33.3 µM in assay [1], 24.6 µM in assay [2], 29.7 µM in assay [3] and 32.1 µM in assay [4].
In the case of `O=Cc1c(-c2cc(O)ccc2O)nc2sccn12`, the GI50 in assay [1] is 14.3 µM; in assay [2], 12 µM; in assay [3], 16 µM; in assay [4], 35.7 µM. The TGI in assay [1] is more than 100 µM; in assay [2], 31.4 µM; in assay [3] it was 48.5 µM; in assay [4] it was more than 100 µM.
In the case of `C1CC[N-]CC1.C1CC[N-]CC1.C1CC[N-]CC1.C1CC[N-]CC1.[Cl][Rh][Cl]`, the GI50 is 10.2 µM in assay [1], 21.5 µM in assay [2], more than 100 µM in assay [3] and 3.95 µM in assay [4]. Further, the TGI in assay [1] was more than 100 µM; in assay [2] it was more than 100 µM; in assay [3], more than 100 µM; in assay [4], 54.8 µM.
Take `Cc1ccc(C(=O)Nc2ccc(CN3CCN(C)CC3)c(C(F)(F)F)c2)cc1C#Cc1cnc(N)cc1C#N`: the GI50 in assay [1] was 0.701 µM; in assay [2] it was 0.112 µM; in assay [3] it was 0.27 µM; in assay [4], 0.143 µM. The TGI in assay [1] was found to be 1.58 µM; in assay [2], 0.621 µM; in assay [3], 1.68 µM; in assay [4] it was 1.33 µM.
For the molecule `COCCn1cc(-c2csc(-c3c[nH]c4ccccc34)n2)c2cccnc21`, the GI50 in assay [1] was 1.74 µM; in assay [2], 5.05 µM; in assay [3], 1.76 µM; in assay [4], 9.14 µM. The TGI in assay [1] was more than 100 µM; in assay [2], more than 100 µM; in assay [3] it was 6.9 µM; in assay [4], more than 100 µM.
For the molecule `O=C(O)C(=Cc1ccnc2ccccc12)C(=O)O`, the TGI in assay [1], in assay [2], in assay [3] and in assay [4] was more than 100 µM each time.
As for `Oc1ccc(Cc2ccc(O)c3ncccc23)c2cccnc12`, the GI50 in assay [1] is 0.0524 µM; in assay [2] it was 0.0487 µM; in assay [3], 0.212 µM; in assay [4], 0.0365 µM. Further, the TGI in assay [1], in assay [2], in assay [3] and in assay [4] was more than 100 µM each time.
For the molecule `N#Cc1c(C(=O)c2ccccc2)cnn1-c1ccccc1`, the GI50 in assay [1], in assay [2], in assay [3] and in assay [4] was more than 25 µM each time. The TGI in assay [1], in assay [2], in assay [3] and in assay [4] was more than 25 µM each time.
For `O=c1cc(C(F)(F)F)c2cc3c(cc2o1)NCCC3`, the TGI is more than 100 µM in assay [1], more than 100 µM in assay [2], more than 100 µM in assay [3] and 61.9 µM in assay [4].
As to `CC1=C(/C=C/C(C)=C\C=C\C(C)=C\C(=O)Nc2ccc3c(c2)OCO3)C(C)(C)CCC1`, the GI50 in assay [1] is 11.2 µM; in assay [2], more than 100 µM; in assay [3] it was 73 µM; in assay [4], more than 100 µM. In addition, the TGI in assay [1], in assay [2], in assay [3] and in assay [4] was more than 100 µM in each case.
As for `Nc1ccccc1C#C/C=C\C#Cc1ccccc1C(F)(F)F`, the GI50 in assay [1] was 1.56 µM; in assay [2], 0.274 µM; in assay [3], 0.302 µM; in assay [4], 1.26 µM. Further, the TGI in assay [1] is more than 47.5 µM; in assay [2] it was 2.73 µM; in assay [3] it was 2.89 µM; in assay [4], 25.2 µM.
On to `Cc1c(N=Nc2ccc([N+](=O)[O-])cc2)nc2scc(-c3ccccc3)n12`, for which the TGI in assay [1], in assay [2], in assay [3] and in assay [4] was more than 100 µM each time.
